Source: PMC11170914, “A distinct dimer configuration of a diatom Get3 forming a tetrameric complex with its tail-anchored membrane cargo” (BMC Biology, 2024)

Target: T1, Pt-Get3a (Phaeodactylum tricornutum, UniProt B7G933)
T1 construct: gene PHATRDRAFT_22896; full length, residues 1-349; expressed in E. coli; N-terminal 6His tag cleaved by TEV protease
T1 sequence (B7G933 1-349): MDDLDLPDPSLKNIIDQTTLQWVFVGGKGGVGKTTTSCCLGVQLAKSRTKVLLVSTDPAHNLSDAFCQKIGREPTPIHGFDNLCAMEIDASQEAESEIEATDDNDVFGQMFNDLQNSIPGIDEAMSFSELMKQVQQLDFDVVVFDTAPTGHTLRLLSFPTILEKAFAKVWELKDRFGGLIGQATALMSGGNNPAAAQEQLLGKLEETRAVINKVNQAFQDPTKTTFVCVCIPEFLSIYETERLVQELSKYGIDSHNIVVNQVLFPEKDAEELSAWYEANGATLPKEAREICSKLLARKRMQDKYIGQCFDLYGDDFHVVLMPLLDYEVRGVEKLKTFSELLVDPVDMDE
Test: X-ray crystallography, […] Å
Settings: co-crystal with 2 mM ADP, 2 mM MgCl2, 2 mM AlCl3, 8 mM NaF, pH 4.7, 25 °C; Mg2+/ADP in nucleotide-binding domain

Nc1ncnc2c1ncn2[C@@H]1O[C@H](COP(=O)(O)OP(=O)(O)O)[C@@H](O)[C@H]1O [ADP]
X-ray crystallography, 2.32 Å: an ADP and a magnesium ion were observed in the two crystallographic independent monomers
